Assay: mn = molality of the nth substance listed, in mol/kg
Conditions: Liquid, Constant-volume piezometry

[Br-].[K+] [potassium bromide] + O
Conditions	mass density [kg/m3]
298.15 K, 101 kPa, m1 = 0.2378	1017
298.15 K, 101 kPa, m1 = 0.4645	1035.5
298.15 K, 101 kPa, m1 = 0.944	1073.1
298.15 K, 101 kPa, m1 = 2.231	1167.1
298.94 K, 4079 kPa, m1 = 0.944	1074.6
298.94 K, 13886 kPa, m1 = 0.944	1079.1
298.94 K, 28950 kPa, m1 = 0.944	1085.8
303.15 K, 101 kPa, m1 = 0.2378	1015.5
303.15 K, 101 kPa, m1 = 0.4645	1033.8
303.15 K, 101 kPa, m1 = 0.944	1071.4
303.15 K, 101 kPa, m1 = 2.231	1164.9
305.49 K, 3020 kPa, m1 = 0.2378	1016
305.49 K, 10375 kPa, m1 = 0.2378	1019.1
305.49 K, 27594 kPa, m1 = 0.2378	1026.4
308.15 K, 101 kPa, m1 = 0.2378	1013.7
308.15 K, 101 kPa, m1 = 0.4645	1032
308.15 K, 101 kPa, m1 = 0.944	1069.3
308.15 K, 101 kPa, m1 = 2.231	1162.4
308.32 K, 3256 kPa, m1 = 0.4645	1033.3
308.32 K, 10375 kPa, m1 = 0.4645	1036.5
308.32 K, 29078 kPa, m1 = 0.4645	1044.3
310.59 K, 2118 kPa, m1 = 2.231	1162.1
310.59 K, 14710 kPa, m1 = 2.231	1167.8
310.59 K, 19825 kPa, m1 = 2.231	1170.1
310.59 K, 29828 kPa, m1 = 2.231	1174.5
313.15 K, 101 kPa, m1 = 0.2378	1011.8
313.15 K, 101 kPa, m1 = 0.4645	1030.1
313.15 K, 101 kPa, m1 = 0.944	1067.2
313.15 K, 101 kPa, m1 = 2.231	1159.9
318.15 K, 101 kPa, m1 = 0.2378	1009.8
318.15 K, 101 kPa, m1 = 0.4645	1027.9
318.15 K, 101 kPa, m1 = 0.944	1065
318.15 K, 101 kPa, m1 = 2.231	1157.4
323.15 K, 101 kPa, m1 = 0.2378	1007.5
323.15 K, 101 kPa, m1 = 0.4645	1025.6
323.15 K, 101 kPa, m1 = 0.944	1062.5
323.15 K, 101 kPa, m1 = 2.231	1154.8
328.15 K, 101 kPa, m1 = 0.2378	1005.1
328.15 K, 101 kPa, m1 = 0.4645	1023.2
328.15 K, 101 kPa, m1 = 0.944	1060
328.15 K, 101 kPa, m1 = 2.231	1152.1
333.15 K, 101 kPa, m1 = 0.2378	1002.6
333.15 K, 101 kPa, m1 = 0.4645	1020.5
333.15 K, 101 kPa, m1 = 0.944	1057.4
333.15 K, 101 kPa, m1 = 2.231	1149.3
338.15 K, 101 kPa, m1 = 0.2378	999.9
338.15 K, 101 kPa, m1 = 0.4645	1017.8
338.15 K, 101 kPa, m1 = 0.944	1054.6
338.15 K, 101 kPa, m1 = 2.231	1146.4
343.15 K, 101 kPa, m1 = 0.2378	997.1
343.15 K, 101 kPa, m1 = 0.4645	1014.9
343.15 K, 101 kPa, m1 = 0.944	1051.7
343.33 K, 3923 kPa, m1 = 0.4645	1016.4
343.33 K, 9552 kPa, m1 = 0.4645	1018.7
343.33 K, 16550 kPa, m1 = 0.4645	1021.6
343.33 K, 28570 kPa, m1 = 0.4645	1026.7
348.15 K, 101 kPa, m1 = 0.2378	994.2
348.15 K, 101 kPa, m1 = 0.4645	1012
348.15 K, 101 kPa, m1 = 0.944	1048.7
349.79 K, 3334 kPa, m1 = 0.2378	994.6
349.79 K, 11278 kPa, m1 = 0.2378	997.9
349.79 K, 23461 kPa, m1 = 0.2378	1003.1
349.79 K, 29380 kPa, m1 = 0.2378	1005.5
358.08 K, 3668 kPa, m1 = 0.944	1043.1
358.08 K, 10120 kPa, m1 = 0.944	1046.1
358.08 K, 29145 kPa, m1 = 0.944	1054.5
359.48 K, 3824 kPa, m1 = 2.231	1132.6
359.48 K, 10866 kPa, m1 = 2.231	1135.7
359.48 K, 18995 kPa, m1 = 2.231	1139.3
359.48 K, 25870 kPa, m1 = 2.231	1142.3
380.97 K, 3746 kPa, m1 = 0.4645	990.6
380.97 K, 9316 kPa, m1 = 0.4645	993.2
380.97 K, 21042 kPa, m1 = 0.4645	998.6
380.97 K, 29750 kPa, m1 = 0.4645	1002.5
393.11 K, 3256 kPa, m1 = 0.2378	963.5
393.11 K, 10866 kPa, m1 = 0.2378	967.2
393.11 K, 21065 kPa, m1 = 0.2378	972
393.11 K, 26860 kPa, m1 = 0.2378	974.7
400.81 K, 3099 kPa, m1 = 0.944	1010.2
400.81 K, 9061 kPa, m1 = 0.944	1013
400.81 K, 18381 kPa, m1 = 0.944	1017.7
400.81 K, 25438 kPa, m1 = 0.944	1020.8
432.97 K, 4236 kPa, m1 = 2.231	1073.5
432.97 K, 11356 kPa, m1 = 2.231	1077.7
432.97 K, 16570 kPa, m1 = 2.231	1080.7
432.97 K, 22357 kPa, m1 = 2.231	1084
434.09 K, 4805 kPa, m1 = 0.2378	928.1
434.09 K, 9218 kPa, m1 = 0.2378	930.6
434.09 K, 16941 kPa, m1 = 0.2378	935
434.09 K, 28064 kPa, m1 = 0.2378	941.1
453.99 K, 3825 kPa, m1 = 0.4645	925.6
453.99 K, 9140 kPa, m1 = 0.4645	928.9
453.99 K, 16241 kPa, m1 = 0.4645	933.5
453.99 K, 22957 kPa, m1 = 0.4645	937.5
456.48 K, 4158 kPa, m1 = 0.944	959.4
456.48 K, 10120 kPa, m1 = 0.944	963.3
456.48 K, 17148 kPa, m1 = 0.944	967.9
456.48 K, 24027 kPa, m1 = 0.944	972.2
475.7 K, 4903 kPa, m1 = 0.2378	884.5
475.7 K, 10611 kPa, m1 = 0.2378	888.7
475.7 K, 22060 kPa, m1 = 0.2378	896.6
475.7 K, 29860 kPa, m1 = 0.2378	902
482.36 K, 4413 kPa, m1 = 0.4645	893.9
482.36 K, 8571 kPa, m1 = 0.4645	897
482.36 K, 15175 kPa, m1 = 0.4645	902
482.36 K, 20588 kPa, m1 = 0.4645	905.8
483.32 K, 5217 kPa, m1 = 2.231	1024.2
483.32 K, 12082 kPa, m1 = 2.231	1029.2
483.32 K, 22088 kPa, m1 = 2.231	1036.8
483.32 K, 26194 kPa, m1 = 2.231	1039.4
493.15 K, 4413 kPa, m1 = 0.944	918.4
493.15 K, 11591 kPa, m1 = 0.944	923.9
493.15 K, 21454 kPa, m1 = 0.944	931.3
493.15 K, 25284 kPa, m1 = 0.944	934.3
505.79 K, 5786 kPa, m1 = 2.231	999.3
505.79 K, 11846 kPa, m1 = 2.231	1004
505.79 K, 16954 kPa, m1 = 2.231	1007.9
505.79 K, 23854 kPa, m1 = 2.231	1013.5
511.39 K, 6119 kPa, m1 = 0.4645	858.4
511.39 K, 10297 kPa, m1 = 0.4645	862.3
511.39 K, 16047 kPa, m1 = 0.4645	867.8
511.39 K, 24184 kPa, m1 = 0.4645	875.1
520.89 K, 7355 kPa, m1 = 0.944	884.8
520.89 K, 12082 kPa, m1 = 0.944	889.3
520.89 K, 20122 kPa, m1 = 0.944	896.9
534.22 K, 8081 kPa, m1 = 0.2378	809.6
534.22 K, 11356 kPa, m1 = 0.2378	813.5
534.22 K, 23496 kPa, m1 = 0.2378	827
540.44 K, 8571 kPa, m1 = 0.4645	819.8
540.44 K, 11591 kPa, m1 = 0.4645	823.1
540.44 K, 22189 kPa, m1 = 0.4645	836.2
551.72 K, 9140 kPa, m1 = 0.944	842.2
551.72 K, 14533 kPa, m1 = 0.944	848.7
551.72 K, 21645 kPa, m1 = 0.944	857.5
555.7 K, 9708 kPa, m1 = 2.231	941.3
555.7 K, 13965 kPa, m1 = 2.231	946
555.7 K, 19995 kPa, m1 = 2.231	952.8
555.7 K, 23967 kPa, m1 = 2.231	957
579.16 K, 11670 kPa, m1 = 0.944	797.3
579.16 K, 14220 kPa, m1 = 0.944	803
579.16 K, 20665 kPa, m1 = 0.944	816.1
579.16 K, 23665 kPa, m1 = 0.944	822.3
580.61 K, 11023 kPa, m1 = 0.4645	754.1
580.61 K, 12494 kPa, m1 = 0.4645	757.8
580.61 K, 19782 kPa, m1 = 0.4645	773.2
592.65 K, 11234 kPa, m1 = 0.2378	698.5
592.65 K, 13731 kPa, m1 = 0.2378	706.6
592.65 K, 20610 kPa, m1 = 0.2378	725.2
608.09 K, 16573 kPa, m1 = 0.4645	703.4
608.09 K, 17652 kPa, m1 = 0.4645	707.1
608.09 K, 23146 kPa, m1 = 0.4645	725.8
616.41 K, 14847 kPa, m1 = 0.944	714.7
616.41 K, 15769 kPa, m1 = 0.944	727.1
616.41 K, 19875 kPa, m1 = 0.944	753.5
628.63 K, 17475 kPa, m1 = 2.231	841.1
628.63 K, 18221 kPa, m1 = 2.231	844.9

— the NIST ThermoML archive (doi:10.1016/j.fluid.2006.05.015)
